Biological target: Ras-related C3 botulinum toxin substrate 1 (Mus musculus, UniProt P63001)
Assay: activated Rac1 mutant nucleotide-binding inhibitors – biochemical, multiplex, GST-Rac1 beads, Bodipy-FL-GTP, flow cytometry, dose response (AID 1339)

Compound | EC50
O=C1C([N+](=O)[O-])=Cc2oc3c(c2C1/C=N/Cc1ccccc1)CCCC3 (configuration not stated) [(1Z)-3-nitro-1-[[(phenylmethyl)amino]methylidene]-6,7,8,9-tetrahydrodibenzofuran-2-one] | 5.79 µM
CNC(=S)N/N=C1\C(=O)Nc2ccccc21 [1-methyl-3-[(2-oxoindol-3-yl)amino]thiourea] | 91.6 µM
